Source: US7902196B2, “Synthesis of avrainvillamide, strephacidin B, and analogues thereof” (President and Fellows of Harvard College, priority 2005, dated 2011)

What was measured:
cell cycle = experiment: effect of avrainvillamide on the cell cycle (FIG. 19); format: cell-based
apoptosis and necrosis = experiment: induction of apoptosis and necrosis (FIG. 20); format: cell-based
Experimental: FIG. 20 induces apoptosis at 1-4 μM and necrosis at 8 μM.

[1] = decomposition of stephacidin B into avrainvillamide (FIG. 18); format: physicochemical
[2] = system: cultured human cancer cells; conditions: reported for the fungal isolates; cited from earlier work
[3] = system: multidrug-resistant bacteria; conditions: reported; cited from earlier work
[4] = 1,5-addition of methanol-d4 to 2
[5] = stability in solution protected from light
[6] = interconversion of stephacidin B (1) and 2 in solution; format: physicochemical; conditions: 50% DMSO-d6-CD3CN, 23° C.
Experimental: Our preliminary studies leave little doubt that 1 and 2 are readily interconverted in solution. For example, concentration of an acetonitrile-water solution of pure synthetic stephacidin B (1) at 38° C. afforded a 2:1 mixture of 2 and 1, as well as unidentified decomposition products. Also, whereas solutions of pure 1 in 50% DMSO-d6-CD3CN appeared to be stable for at least 48 h at 23° C. (The merits of the DMSO-d6-CD3CN solvent system in stabilizing stephacidin B were discussed in Qian-Cutrone et al. J. Am. Chem. Soc. 2002, 124, 14556; incorporated herein by reference.), addition of powdered 3-Å molecular sieves led to partial retro-dimerization, giving a 2:1 mixture of 1 and 2 within 1 h at 23° C. We also observed partial transformation of 1 to form 2 upon exposure to silica gel (2D-TLC analysis). From the data thus far it is clear that (−)-2 and (+)-1 readily interconvert under mild conditions. […] In theory, the converse may be true, though this seems less likely, simply upon consideration of concentration effects. Our results also leave open the possibility that stephacidin B is an artifact of the isolation of 2; the converse may be true instead, though this would appear to be less likely.

Question: For CC1(C)C=Cc2c(ccc3c2[N+]([O-])=C2C3=C[C@@]34NC(=O)[C@]5(CCCN5C3=O)C[C@H]4C2(C)C)O1 [avrainvillamide], which “effect on the cell cycle” value (cell cycle) is on record?
Answer: induces arrest in G2/M

Question: What about the concentration inducing apoptosis (apoptosis and necrosis) of the same compound?
Answer: 1 to 4 µM

Question: And the concentration inducing necrosis (apoptosis and necrosis)?
Answer: 8 µM

Question: And the “species present under physiological conditions” value [1]?
Answer: major species present under physiological conditions

Question: What about the antiproliferative activity [2] of the same compound?
Answer: exhibit antiproliferative activity

Question: What about the antimicrobial activity [3] of the same compound?
Answer: anti-microbial activity against multidrug-resistant bacteria

Question: And the “equilibrium constant, methanol-d4 adducts combined to 2” value ([4]; 23° C., tentative)?
Answer: 7.7

Question: What about the “time to form the products of 1,5-addition of methanol-d4” value ([4]; pure methanol-d4, 23° C.) of the same compound?
Answer: < 10 min

Question: What about the half-life ([4]; solution in pure methanol-d4) of the same compound?
Answer: < 10 min

Question: With CC1(C)C=Cc2c(ccc3c2[N+]([O-])=C2C3=C[C@@]34NC(=O)[C@]5(CCCN5C3=O)C[C@H]4C2(C)C)O1 [compound 1, avrainvillamide] as the compound, how does the antimicrobial activity [3] read?
Answer: antimicrobial activity against multidrug-resistant bacteria

Question: For CC1(C)C=Cc2c(ccc3c2[N+]([O-])=C2C(C)(C)[C@@H]4C[C@]56CCCN5C(=O)C4(NC6=O)C4N5C(=O)C67CCCN6C(=O)[C@]56C(C7)C(C)(C)c5c(c7ccc8c(c7n5O)C=CC(C)(C)O8)[C@H]6C234)O1 (stereo partly drawn) [stephacidin B], which “avrainvillamide formed by decomposition of stephacidin B” value [1] is on record?
Answer: 1.7 equiv.

Question: And the antiproliferative activity [2]?
Answer: exhibit antiproliferative activity

Question: Which “time stable in solution” value ([5]; 37 mM solution in methylene-d2-chloride, 23° C., protected from light) does the source give for CC(C)(C)/C=C/C=[N+]([O-])c1ccccc1 [α-(trans-3,3-dimethyl-1-butenyl)-N-phenylnitrone] here?
Answer: at least 7 h

Question: What about the “stability upon concentration to dryness” value ([5]; 1H NMR analysis) of the same compound?
Answer: decomposed within two hours

Question: Which “time solutions appeared stable” value [6] does the source give for avrainvillamide [compound 1] here?
Answer: at least 48 h
